Reference: patent US20240350493A1 (Kadmon Corporation, LLC, priority 2022, published 2024)
Where two headings read alike, the source gives them in different places.

What was measured:
CYP3A4 = CYP3A4 (Homo sapiens, UniProt P08684); test: incubations with recombinant enzymes; type: in vitro ADME
CYP2C19 = CYP2C19 (Homo sapiens, UniProt P33261); test: incubations with recombinant enzymes; type: in vitro ADME
[1] = relative bioavailability/food effect study, tablet and capsule (KD025-106); type: in vivo, human; conditions: for AUC(0-t) / AUC(0-inf) / Cmax / Tmax / half-life: male, human, plasma, oral, 200 mg
Protocol: Both studies were single-center, open-label, randomized, single dose crossover studies in healthy males.
In the second, relative bioavailability/food effect study, both the marketed tablets and earlier formulation capsules were investigated.
For Treatments B and C, before dosing, subjects consumed a high-fat breakfast consisting of a hash brown, bacon, fried egg, white bread, and 240 mL of full fat milk over 25 minutes. […] All subjects were to receive each treatment, with at least a 6-day washout between each period. Water was permitted ad libitum in all study periods, besides for 1 hour pre-and post-dose.
In both studies, serial blood samples for PK analysis were collected at pre-dose and 1, 2, 4, 6, 8, 12, 16, 24, and 36 hours post-dose. An additional sample at 30 hours post-dose was collected in the first study; additional samples were collected 3, 5, and 48 hours post-dose in the second study. Blood samples (5-6 mL per sample) were collected in K3EDTA tubes on ice and were processed within 30 minutes of collection, then frozen at approximately-70 to −80° C. shortly after collection.
Sample preparation was performed by protein precipitation.
Statistical analyses were performed in SAS using the PROC MIXED procedure and the Restricted Maximum Likelihood estimation method. In both studies, the presence of a food effect was evaluated by a formal statistical analysis on natural log-transformed AUC and Cmax using mixed effect modeling techniques. The model included treatment, period, and sequence as fixed effects and subject nested within sequence as a random effect. Adjusted geometric mean ratios (GMRs) and their 90% confidence intervals (CIs) were calculated for fed (test) versus fasted (reference) treatments. The absence of a food effect was to be concluded if the 90% CI was within the bioequivalence limits of 80.00 to 125.00%.
To assess relative bioavailability between formulations in the second study, the same analysis was performed for tablets (test) versus capsules (reference), both in the fed state. For both studies, all subjects who received at least one dose of study drug and had post-dose PK data available were included in the PK population

P-gp = P-gp (Homo sapiens, UniProt P08183); test: transporter inhibition, in vitro; type: in vitro ADME; conditions: at clinically relevant concentrations
Sequence of P-gp (P08183 whole entry): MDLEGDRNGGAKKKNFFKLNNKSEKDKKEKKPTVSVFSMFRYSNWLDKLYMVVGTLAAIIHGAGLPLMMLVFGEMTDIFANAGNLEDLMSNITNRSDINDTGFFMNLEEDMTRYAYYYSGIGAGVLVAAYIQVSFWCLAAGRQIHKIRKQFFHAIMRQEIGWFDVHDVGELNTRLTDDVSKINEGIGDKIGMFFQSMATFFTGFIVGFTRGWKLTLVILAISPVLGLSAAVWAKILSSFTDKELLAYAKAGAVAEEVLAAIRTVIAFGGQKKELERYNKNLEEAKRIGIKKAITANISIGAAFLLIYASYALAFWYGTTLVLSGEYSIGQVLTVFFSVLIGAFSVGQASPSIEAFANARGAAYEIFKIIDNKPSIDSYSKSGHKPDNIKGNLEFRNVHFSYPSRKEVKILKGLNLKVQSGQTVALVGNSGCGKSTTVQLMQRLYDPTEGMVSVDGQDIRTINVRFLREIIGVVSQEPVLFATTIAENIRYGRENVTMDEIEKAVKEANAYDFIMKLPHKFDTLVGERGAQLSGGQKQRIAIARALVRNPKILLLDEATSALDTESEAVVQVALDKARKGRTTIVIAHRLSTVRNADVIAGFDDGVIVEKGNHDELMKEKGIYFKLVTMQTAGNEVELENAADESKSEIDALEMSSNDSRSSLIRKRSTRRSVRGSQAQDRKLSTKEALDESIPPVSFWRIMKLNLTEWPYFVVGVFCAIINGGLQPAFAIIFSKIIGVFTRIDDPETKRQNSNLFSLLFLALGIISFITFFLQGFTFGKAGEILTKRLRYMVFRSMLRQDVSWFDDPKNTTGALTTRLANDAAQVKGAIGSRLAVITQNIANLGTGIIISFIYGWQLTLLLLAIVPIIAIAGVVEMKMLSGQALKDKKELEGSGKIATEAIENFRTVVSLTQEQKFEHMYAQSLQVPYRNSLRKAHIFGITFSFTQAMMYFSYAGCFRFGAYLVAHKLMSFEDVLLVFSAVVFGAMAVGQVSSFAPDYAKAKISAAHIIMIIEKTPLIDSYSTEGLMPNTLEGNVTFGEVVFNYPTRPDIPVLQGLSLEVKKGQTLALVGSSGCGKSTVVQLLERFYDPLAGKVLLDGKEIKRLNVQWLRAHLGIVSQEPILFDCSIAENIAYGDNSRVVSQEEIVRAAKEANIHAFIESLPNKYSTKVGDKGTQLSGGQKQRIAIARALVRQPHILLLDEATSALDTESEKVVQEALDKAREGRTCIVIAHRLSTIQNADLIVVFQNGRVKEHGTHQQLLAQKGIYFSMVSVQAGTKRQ

CYP2D6 = CYP2D6 (Homo sapiens, UniProt P10635); test: enzyme inhibition, in vitro; type: in vitro ADME
Sequence of CYP2D6 (P10635 whole entry): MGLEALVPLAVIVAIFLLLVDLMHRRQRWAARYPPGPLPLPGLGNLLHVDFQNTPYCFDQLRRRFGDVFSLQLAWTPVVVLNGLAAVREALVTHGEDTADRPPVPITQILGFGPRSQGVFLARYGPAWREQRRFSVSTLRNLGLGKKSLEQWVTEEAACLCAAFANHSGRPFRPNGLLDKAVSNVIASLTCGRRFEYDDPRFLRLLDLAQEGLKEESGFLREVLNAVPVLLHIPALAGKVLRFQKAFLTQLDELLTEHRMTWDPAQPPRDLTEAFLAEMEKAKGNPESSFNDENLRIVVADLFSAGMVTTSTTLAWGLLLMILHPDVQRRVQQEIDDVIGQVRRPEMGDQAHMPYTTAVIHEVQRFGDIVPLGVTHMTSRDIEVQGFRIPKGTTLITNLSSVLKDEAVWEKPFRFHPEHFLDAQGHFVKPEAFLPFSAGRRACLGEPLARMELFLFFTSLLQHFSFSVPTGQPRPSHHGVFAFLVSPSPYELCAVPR

UGT1A1 = UGT1A1 (Homo sapiens, UniProt P22309); test: enzyme inhibition, in vitro; type: in vitro ADME
Sequence of UGT1A1 (P22309 26-533): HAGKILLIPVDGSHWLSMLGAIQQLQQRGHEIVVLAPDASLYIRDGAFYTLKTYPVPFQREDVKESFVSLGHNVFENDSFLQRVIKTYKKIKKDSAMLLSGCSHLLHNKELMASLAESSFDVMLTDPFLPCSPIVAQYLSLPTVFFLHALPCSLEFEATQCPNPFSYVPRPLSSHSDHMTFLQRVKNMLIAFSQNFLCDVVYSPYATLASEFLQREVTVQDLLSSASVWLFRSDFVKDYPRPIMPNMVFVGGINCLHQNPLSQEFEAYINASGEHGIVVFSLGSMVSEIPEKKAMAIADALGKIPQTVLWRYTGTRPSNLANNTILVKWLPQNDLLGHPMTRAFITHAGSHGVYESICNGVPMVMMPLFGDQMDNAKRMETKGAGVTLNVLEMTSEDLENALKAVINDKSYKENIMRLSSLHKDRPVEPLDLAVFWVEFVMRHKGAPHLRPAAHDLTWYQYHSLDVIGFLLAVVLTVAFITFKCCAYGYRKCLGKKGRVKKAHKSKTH

[2] = test system: bacterial mutagenicity (Ames); test: in vitro bacterial mutagenicity (Ames) assay; type: cell-based
rats [3] = test: combined male and female rat fertility study; type: in vivo
Description: In a combined male and female rat fertility study, belumosudil-treated male animals were mated with untreated females, or untreated males were mated with belumosudil-treated females.

dogs = test: general toxicology studies, dogs; type: in vivo, dog
rats [4] = test: general toxicology studies, rats; type: in vivo, rat
[5] = 200 mg tablet, high-fat breakfast

Sequence of CYP2C19 (P33261 whole entry): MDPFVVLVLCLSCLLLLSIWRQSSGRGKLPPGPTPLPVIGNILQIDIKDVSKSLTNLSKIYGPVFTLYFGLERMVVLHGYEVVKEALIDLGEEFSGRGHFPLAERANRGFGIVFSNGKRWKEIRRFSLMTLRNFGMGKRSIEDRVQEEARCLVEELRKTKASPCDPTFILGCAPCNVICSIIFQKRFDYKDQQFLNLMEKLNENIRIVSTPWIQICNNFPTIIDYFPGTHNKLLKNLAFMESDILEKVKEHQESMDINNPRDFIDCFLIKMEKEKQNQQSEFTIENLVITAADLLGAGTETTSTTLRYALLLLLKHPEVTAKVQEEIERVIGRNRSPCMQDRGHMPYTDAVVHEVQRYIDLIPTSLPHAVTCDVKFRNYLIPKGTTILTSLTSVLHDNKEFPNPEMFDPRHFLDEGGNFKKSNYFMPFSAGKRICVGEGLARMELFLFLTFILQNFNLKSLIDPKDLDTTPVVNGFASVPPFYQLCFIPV
Sequence of CYP3A4 (P08684 whole entry): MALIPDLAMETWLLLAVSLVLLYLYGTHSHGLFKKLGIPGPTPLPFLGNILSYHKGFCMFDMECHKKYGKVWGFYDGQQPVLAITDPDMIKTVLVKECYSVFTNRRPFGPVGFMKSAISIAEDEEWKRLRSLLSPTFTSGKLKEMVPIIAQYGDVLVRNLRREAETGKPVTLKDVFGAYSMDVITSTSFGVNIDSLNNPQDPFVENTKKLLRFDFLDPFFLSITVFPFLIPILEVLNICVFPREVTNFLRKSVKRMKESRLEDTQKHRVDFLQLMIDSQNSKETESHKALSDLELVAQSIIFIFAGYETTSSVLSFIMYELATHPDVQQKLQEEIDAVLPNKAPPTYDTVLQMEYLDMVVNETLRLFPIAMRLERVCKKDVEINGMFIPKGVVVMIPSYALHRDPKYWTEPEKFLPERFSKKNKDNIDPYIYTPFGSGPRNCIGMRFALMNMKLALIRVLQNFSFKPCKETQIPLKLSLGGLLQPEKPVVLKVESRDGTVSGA

With `CC(C)NC(=O)COc1cccc(-c2nc(Nc3ccc4[nH]ncc4c3)c3ccccc3n2)c1` [Belumosudil, 2-{3-[4-(1H-indazol-5-ylamino)-2-quinazolinyl]phenoxy}-N-(propan-2-yl) acetamide] the “share of belumosudil metabolism” value (CYP3A4) was 41.9%, the “share of belumosudil metabolism” value (CYP2C19) was < 5% and the “reduction of inter-subject variability in exposure with food” value ([1]; 200 mg tablet) was “approximately 60%”. For the same compound, the “AUC% extrap, arithmetic mean (SD)” value ([1]; 200 mg tablet, fasted) was 8.38 (9.05) %, the “AUC% extrap, geometric mean (geometric CV %)” value ([1]; 200 mg tablet, fasted) was 6.02 (90.8); % and the “AUC% extrap, arithmetic mean (SD)” value ([1]; 200 mg tablet, fed) was 1.71 (0.71) %. For the same compound, the “AUC% extrap, geometric mean (geometric CV %)” value ([1]; 200 mg tablet, fed) was 1.55 (50.3); %, the “AUCinf fed as % of fasted” value [1, 5] was 180% and the “Cmax fed as % of fasted” value [1, 5] was 225%. For the same compound, the AUC(0-t) ([1]; 200 mg tablet, fasted, read-out: AUC0-24, arithmetic mean (SD)) was 5.4 µg·h/mL, the AUC(0-t) ([1]; 200 mg tablet, fasted, read-out: AUC0-24, geometric mean (geometric CV %)) was 4.25 µg·h/mL and the AUC(0-inf) ([1]; 200 mg tablet, fasted, read-out: AUCinf, arithmetic mean (SD)) was 6.67 µg·h/mL. The AUC(0-inf) ([1]; 200 mg tablet, fasted, read-out: AUCinf, geometric mean (geometric CV %)) was 4.91 µg·h/mL, the AUC(0-t) ([1]; 200 mg tablet, fasted, read-out: AUClast, arithmetic mean (SD)) was 5.83 µg·h/mL and the AUC(0-t) ([1]; 200 mg tablet, fasted, read-out: AUClast, geometric mean (geometric CV %)) was 4.52 µg·h/mL. For the same compound, the Cmax ([1]; 200 mg tablet, fasted, read-out: Cmax, arithmetic mean (SD)) was 1.11 µg/mL, the Cmax ([1]; 200 mg tablet, fasted, read-out: Cmax, geometric mean (geometric CV %)) was 0.821 µg/mL and the Tmax ([1]; 200 mg tablet, fasted, read-out: Tmax, median (range)) was 2 h. It also gave a half-life ([1]; 200 mg tablet, fasted, read-out: t1/2, arithmetic mean (SD) (converted)) of 12.2 h, a half-life ([1]; 200 mg tablet, fasted, read-out: t1/2, geometric mean (geometric CV %) (converted)) of 11.2 h and an AUC(0-t) ([1]; 200 mg tablet, fed, read-out: AUC0-24, arithmetic mean (SD)) of 10.6 µg·h/mL. For the same compound, the AUC(0-t) ([1]; 200 mg tablet, fed, read-out: AUC0-24, geometric mean (geometric CV %)) was 9.58 µg·h/mL, the AUC(0-inf) ([1]; 200 mg tablet, fed, read-out: AUCinf, arithmetic mean (SD)) was 11.3 µg·h/mL and the AUC(0-inf) ([1]; 200 mg tablet, fed, read-out: AUCinf, geometric mean (geometric CV %)) was 10.1 µg·h/mL. For the same compound, the AUC(0-t) ([1]; 200 mg tablet, fed, read-out: AUClast, arithmetic mean (SD)) was 10.8 µg·h/mL, the AUC(0-t) ([1]; 200 mg tablet, fed, read-out: AUClast, geometric mean (geometric CV %)) was 9.75 µg·h/mL and the Cmax ([1]; 200 mg tablet, fed, read-out: Cmax, arithmetic mean (SD)) was 2.32 µg/mL. For the same compound, the Cmax ([1]; 200 mg tablet, fed, read-out: Cmax, geometric mean (geometric CV %)) was 2.1 µg/mL, the Tmax ([1]; 200 mg tablet, fed, read-out: Tmax, median (range)) was 2.5 h and the half-life ([1]; 200 mg tablet, fed, read-out: t1/2, arithmetic mean (SD) (converted)) was 7.59 h. For the same compound, the half-life ([1]; 200 mg tablet, fed, read-out: t1/2, geometric mean (geometric CV %) (converted)) was 6.98 h, the Tmax ([1]; 200 mg tablet, read-out: delay in Tmax with fed administration) was 0.5 h and the “exposure (Cmax and AUC) higher for tablet versus capsule” value ([1]; single dose 200 mg, fed state) was 17-19%. For the same compound, the P-gp inhibition (P-gp) was “inhibits”, the CYP2D6 inhibition (CYP2D6) was “inhibitor” and the UGT1A1 inhibition (UGT1A1) was “inhibitor”. For the same compound, the genotoxicity [2] was “not genotoxic”, the “dose with increased pre-or post-implantation loss and decreased number of viable embryos” value (rats [3]; female rats, treated or mated with treated males) was 275 mg/kg/day and the “dose with abnormal sperm findings and testes/epididymis organ changes” value (rats [3]; male rats) was 275 mg/kg/day. For the same compound, the “dose with reduced fertility” value (rats [3]; treated males or females) was 275 mg/kg/day, the “dose with spermatozoa degeneration” value (dogs) was 35 mg/kg/day and the “dose with decreased follicular development in ovaries” value (rats [4]) was 275 mg/kg/day.
